Test results taken from PubChem BioAssay (NCI).
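Test compounds were applied to cells in 96-well plates for 48 hours at 5 doses. Abbreviation: GI50, concentration required for 50% inhibition of growth. TGI: total growth inhibition.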

Experiments:
Test in all cases: NCI-60 cell line screen, 48 h
CAKI-1 renal = tested on: CAKI-1 renal
CCRF-CEM leukemia = tested on: CCRF-CEM leukemia
DU-145 prostate = tested on: DU-145 prostate
HL-60(TB) leukemia = tested on: HL-60(TB) leukemia
HS 578T breast = tested on: HS 578T breast
OVCAR-8 ovarian = tested on: OVCAR-8 ovarian
PC-3 prostate = tested on: PC-3 prostate
SF-295 CNS = tested on: SF-295 CNS
LOX IMVI melanoma = tested on: LOX IMVI melanoma
HOP-62 NSCLC = tested on: HOP-62 NSCLC

Compound | GI50 (CAKI-1 renal) | TGI (CAKI-1 renal) | GI50 (CCRF-CEM leukemia) | TGI (CCRF-CEM leukemia) | GI50 (DU-145 prostate) | TGI (DU-145 prostate) | GI50 (HL-60(TB) leukemia) | TGI (HL-60(TB) leukemia) | GI50 (HS 578T breast) | TGI (HS 578T breast) | GI50 (OVCAR-8 ovarian) | TGI (OVCAR-8 ovarian) | GI50 (PC-3 prostate) | TGI (PC-3 prostate) | GI50 (SF-295 CNS) | TGI (SF-295 CNS) | TGI (LOX IMVI melanoma) | GI50 (HOP-62 NSCLC) | TGI (HOP-62 NSCLC) | GI50 (LOX IMVI melanoma)
O=C(NNc1ccc(Cl)cc1)C1CCC(CNS(=O)(=O)c2ccccc2Cl)CC1 (stereo unspecified) | 2.9 µM | 12.6 µM | 39.2 µM | > 100 µM | 31.6 µM | > 100 µM | 4.25 µM | > 100 µM | 65.2 µM | > 100 µM | 21.6 µM | > 100 µM | 3.69 µM | 34.7 µM | 4.58 µM | 68.5 µM |  |  |  | 
O=C(O)CCNS(=O)(=O)c1ccc2ccccc2c1 |  | > 100 µM |  | > 100 µM |  |  |  | > 100 µM |  |  |  | > 100 µM |  |  |  | > 100 µM | > 100 µM |  |  | 
N#CC1=C(N)Oc2c(ccc3ccccc23)C1c1cc(=O)oc2ccc(Cl)cc12 (stereo unspecified) |  |  | 0.407 µM | 58.1 µM | 4.11 µM | > 100 µM | 0.275 µM | 1.51 µM | 0.656 µM | 47.2 µM | 1.87 µM | 24 µM | 0.495 µM | > 100 µM | 0.398 µM | 20.1 µM | 40.5 µM | 0.672 µM | > 100 µM | 0.854 µM
Cc1ccc(NC(=O)C(=O)CC(=O)c2c(C)n([O-])c3ccccc3[n+]2=O)cc1C |  | > 100 µM |  | > 100 µM |  |  |  | > 100 µM |  |  |  | > 100 µM |  |  |  | > 100 µM | > 100 µM |  | > 100 µM | 
O=C(C(=O)n1ncc(Cl)c(Cl)c1=O)n1ncc(Cl)c(Cl)c1=O |  | 44 µM |  | 29.7 µM |  |  |  | 22.6 µM |  |  |  | > 59.9 µM |  |  |  | > 100 µM | > 100 µM |  | > 100 µM | 
Cc1ccc(N=C[N-]c2ccc(C)cc2)cc1.Cc1ccc(N=C[N-]c2ccc(C)cc2)cc1.O=C([O-])C(F)(F)F.O=C([O-])C(F)(F)F.[OH3+].[OH3+].[Rh+2].[Rh+2] | > 100 µM | > 100 µM | 23.2 µM | 55.8 µM |  |  |  |  |  |  | 35.1 µM | > 100 µM |  |  | 86.8 µM | > 100 µM | > 100 µM | > 100 µM | > 100 µM | 31.1 µM
[N-]=[N+]=NCCCn1c2c(c3ccc([N+](=O)[O-])cc3c1=O)C(=O)c1cc(Br)ccc1-2 | 0.887 µM | > 100 µM | 0.545 µM | > 100 µM | 14.9 µM | > 100 µM |  |  | > 100 µM | > 100 µM | > 100 µM | > 100 µM | > 100 µM | > 100 µM | 1.66 µM | > 100 µM | > 100 µM | 56.1 µM | > 100 µM | > 100 µM
COc1ccc2nc(C(=O)c3ccccc3)c(C)cc2c1 |  | > 100 µM |  | > 100 µM |  |  |  | > 100 µM |  |  |  | > 46.3 µM |  |  |  | 9.23 µM | > 100 µM |  | 37.1 µM | 
Cc1ccc2nc(NC(=O)C(=O)C(C#N)c3ccc(Cl)cc3)sc2c1 (stereo unspecified) |  | > 50 µM |  |  |  |  |  |  |  |  |  | > 50 µM |  |  |  | > 50 µM | > 50 µM |  | > 50 µM | 
